Data as given in patent publication US10801023B2, “Methods of identifying biologically active random peptides in plants and libraries of plants expressing candidate biologically active random peptides” (University of Florida Research Foundation, Inc., priority 2015, dated 2020).

Columns and labels:
Arabidopsis plants [1] = assay: Plant growth and phenotyping of PEP6 / PEP12 transgenic plants; type: in vivo, Arabidopsis thaliana; settings: transgenic plant in soil; normal-sized plants 25 mm to 30 mm
From the text: Two libraries encoding six- and twelve-random amino acid cyclized peptides (denoted PEP6 and PEP12, respectively) were constructed in binary vectors (as illustrated in FIG. 9) using a Gateway cloning strategy and transformed into Arabidopsis. More than 1,500 transgenic plants with the PEP6 T-DNA inserts were isolated and more than 600 transgenic plants were isolated carrying the PEP12 insert, representing a survival ratio of 1.8% and 1.2% respectively under kanamycin selection. To ensure library representation in the population, DNA was prepared from at least fifty transgenic plants, including ten that had small rosette diameter (5 mm to 10 mm) (e.g., those having BARP sequences SEQ ID NO: 14, 16, 6, 19, 21, 23, 26, 28, 30, and 32) compared to normal-sized plants (25 mm to 30 mm; see Table 2). The nucleotide sequences of all amplified random peptide open reading frames (rpORFs) were different, indicating representation of library diversity was maintained throughout the cloning and transformation process. Several phenotypes were visually apparent. […] Some plants showing multiple growth defects were recorded in each phenotype. Bolting plants with multiple inflorescences were transformed with the PEP6 or PEP12 destination library through the floral dipping method (Clough and Bent, 1998, incorporated herein by reference). For selection, seeds were surface sterilized by 70% ethanol for 5 min and 10% bleach for 20 min. Surface-sterilized seeds were plated on ½× MS basal medium with 0.5% Phyto Agar (cat. # M10200 and # A20300, Research Products International) and 50 μg/ml kanamycin for selection. Transgenic seedlings were identified by GFP expression or resistance to kanamycin. Transformed seedlings were grown to the 3-5 true leaf stage on plates and transferred to soil. DNA was extracted from each seedling (Edwards et al., 1991 incorporated herein by reference) for inserted nucleotide sequence identification. An approximately 500 bp DNA fragment containing the random peptide ORF and part of pK7WG2D vector sequence was amplified using primers PEP-F and PEP-R (SEQ ID NOs: 35 and 36, respectively) listed in Table 4 and sequenced. Arabidopsis plants were grown in soil at 20° C. under 16 hour light/8 hour dark conditions. The characterization of phenotypic variations was based on the comparison among seedlings grown in the same pot or flat.

[2] = test system: Arabidopsis thaliana plants; assay: Quantitative analysis of flowering time of CBF6AA-15 transformant lines; type: in vivo; settings: lines 26, 29, 31 versus wild type Col-0
From the text: FIG. 4A is a digital image comparing a wild type A. thaliana plant with 3 separate lines transformed with the 6AA-15 BARP. A bar graph comparing the number of rosette leaves for each line at the time of flowering is illustrated in FIG. 4B. FIGS. 4C-4F are a series of graphs illustrating quantitative analysis of flowering time for the plant lines illustrated in FIG. 4A, with a minimum of 113 plants analyzed per line.
The observed phenotype was also confirmed by the observed number of rosette leaves present on the plant at the time of flowering, where transformants flowered days earlier and after producing fewer leaves. […] A minimum of 113 plants were analyzed per line, and the number of days until flowering was recorded. FIGS. 4C-4F illustrate the distribution of flowering times of wild type plants vs. the three transformant lines, with the mean shifting from 36 days in wild-type plants to […] in the transgenic lines.

Arabidopsis plants [3] = assay: Flowering time measurement; type: in vivo, Arabidopsis thaliana
From the text: The rpORF were cloned from this seedling PEP6-15 and retransformed into Col-0. A total of 15 independent transgenic lines were isolated and measured on their flowering time. About 75% independent lines had earlier flowering time compared to wild type plants. Thereafter three representative lines 1, 2 and 3, were chosen for detailed analyses (FIG. 11A). […] Thus, the BARP for PEP6-15 (SEQ ID NO: 6, nucleotide sequence SEQ ID NO: 17) appears to produce an earlier flowering time phenotype. […] Three independent PEP6-15 transgenic lines with no transgene segregation were grown directly in soil for the measurement of flowering time. Every line was planted in three 10 cm×10 cm×11 cm pots, and approximately twenty seeds were sown in each pot. The flowering time was recorded as the number of rosette leaves when the inflorescence stem was 0.5-1 cm long. When the majority of plants had flowered, measurement was concluded.

[4] = test system: Arabidopsis thaliana plants; assay: Independent replication of peptide-induced phenotypes in independent transformant lines; type: in vivo; settings: BARP sequence re-introduced into Arabidopsis thaliana
Method: A number of first-transformed generation plants were prepared and phenotypes were observed using the methods described in Example 1, above. In this example some 12-amino-acid-long candidate BARPs were also synthesized and tested. The procedures were the same as for the 6-aa BARPs described in Example 1. These phenotypes were also observed to be stable and inherited in subsequent generations. To verify that the effects observed are due to the expressed peptide and not to other less-likely positional/insertional causes, in this Example, a substantial number of the of the candidate 6 and 12 amino-acid-long BARPs were sequenced and separately transformed into independent plants. […] One microliter was used in a PCR reaction under standard conditions, and using primers corresponding to the attachment (recombinational cloning sequences) of the Gateway vector, the corresponding BARP sequences was amplified. This sequences were then recombined into the pDONR222 vector and then re-ligated into the binary pKWDG2 over-expression vector as described above. This sequence was then re-introduced into Arabidopsis thaliana plants using the floral dipping strategy and selection as noted above. The seedlings were then analyzed for the phenotype as defined by the original transformant. Recapitulation of the phenotype in multiple, independent transformation events provided high evidence of a specific physiological effect of the peptide.

[5] = test system: Arabidopsis thaliana plants; assay: Screening of library of transformed plants expressing candidate BARPs for new phenotypes; type: in vivo; settings: transgenic Arabidopsis thaliana expressing the BARP, scored from emergence to senescence
From the text: In the present example, the methods of the present disclosure were used to generate a library of test nucleic acids encoding a plurality of candidate BARPs, each having a core 6 amino acid random peptide sequence flanked by two cysteine residues. The sequences were also flanked by start and stop codons and Gateway® sequences, such as illustrated in FIG. 1. PCR was used with primers corresponding to the known Gateway flanking sequences to generate the test nucleic acid library. The oligonucleotides were then cloned into bacterial vectors including genes for kanamycin resistance to create a recombination vector library. The vectors were then moved to Agrobacterium tumefaciens strain […] and used to transform Arabidopsis thaliana plants. Seeds were collected from the transformed plants and used to grow new plants. These plants were observed from seedling through the plant lifecycle and observed for new phenotypes. Several new phenotypes emerged, DNA was extracted from the plants displaying new phenotypes, and the sequence of the candidate BARP from the plants was determined. The procedures and results are described in detail below.
The test nucleic acid sequences were synthesized using conserved initiator and terminator sequences flanking 18 random nucleotides, which provides a peptide that is ten amino acids long, with six of the core amino acids randomized, following a Met-Ala-Cys and ending with a Cys-term. This template is illustrated in FIG. 1. In the present example, the corresponding nucleic acid sequence was […] (SEQ ID NO: 5; nucleotides 14-46 of SEQ ID NO: 1). The cysteine residues in this case provide potential for formation of disulfide bonds that may impart additional structure to the adjacent amino acid loop. Although in this example 18 random nucleotides (identified as “N” in SEQ ID NOs: 1 and 5) were used, any number may be used, as long as it is a multiple of three.
To construct the library of random-core BARP sequences, the above DNA sequence was synthesized as an oligonucleotide sequence, along with flanking sequences corresponding to the Gateway® recombination sequences. The middle portion of the sequence, represented by “N” in FIG. 1, were randomized nucleotides. Known synthesis techniques were used to build the sequences, resulting in a library of PCR products containing test nucleic acid sequences (start codon, spacer codon, cysteine codon, 18 random nucleotides encoding a core candidate BARP sequence, second cysteine codon, and stop codon) flanked by Gateway recombination sequences. Although Gateway® sequences were used in the present examples, other recombination cloning primer sequences could be used or specifically designed.
The library of PCR products containing random test sequences was amplified using PCR based on flanking primers containing Gateway recombination sequences. These reactions produced a population of PCR products each containing the core peptide test sequence flanked by Gateway recombination sequences. These PCR products were introduced to the vector pDONR222 using Gateway recombination, and then transformed into E. coli genotype DH5α. The transformation vector also included the NPTII gene for kanamycin resistance. The E. coli cells were plated on kanamycin plates at low density to obtain single-colony separation. The single colonies each contained a separate plasmid bearing a random peptide sequence.
The colonies were recovered from plates in liquid medium, and the plasmids were isolated. The isolated plasmids represented a library of many independent, random sequences (encoding candidate BARPs) flanked by ‘start’ and ‘stop’ sequences. […]

Arabidopsis seedlings = assay: Effects of lethal sequences: growth of PEP6-3 seedlings with or without sucrose; type: in vivo, Arabidopsis thaliana
From the text: If these seedlings were transplanted to media supplemented with 2% sucrose some of them survived. These surviving seedlings were genotyped. One of these seedlings grew on a sucrose plate for one month and in soil for another 2 months before bolting and setting seeds. The rpORF was re-cloned and transformed into Col-0 Arabidopsis to generate independent transformation lines. […] The T2 seeds from the original line and 5 independent lines were sown on a ½ MS plate with or without sucrose under kanamycin selection. Seeds on both types of media germinated at a rate of 95%. […] The effect of the peptide was tested in petunia. […] Thus, the BARP for PEP6-3 (SEQ ID NO: 14, nucleotide sequence SEQ ID NO: 13) appears to produce phenotype that requires sucrose media.
It is possible that the phenotypes observed were not related to the peptide sequence, but instead were artifacts of T-DNA integration, since insertion of the CaMV35S-bearing T-DNA cassette could potentially disrupt a gene where an effect could be observed in its heterozygous form, or the viral promoter could activate expression of neighboring genes, resulting in an observable phenotype. Thus, to generate a series of independent transformants for each sequence of interest, the random peptide ORFs from transgenic plants showing aberrant phenotypes were amplified using attB universal adaptor primers, and cloned into pDONR222 and pK7WG2D vectors via BP and LR reactions, respectively. These constructs were then transformed into Arabidopsis to generate additional independent transgenic lines. Each series of independent transgenic lines containing the same random peptide ORF were grown under the same conditions used to produce the original phenotype. Transcript abundance of the random peptide ORF and the control gene Ubiquitin family protein (UFP, At4g01000) in every transgenic line was analyzed by semi-quantitative RT-PCR using attB1 and attB2 adaptor primers or UFP-rF and -rR primers (SEQ ID NOs: 37-38), respectively.
The seedling was moved to media containing sucrose where it then developed normally. Five independent lines (1, 2, 3, 4 and 6) containing the PEP6-3 sequence (SEQ ID NO: 13) were grown under kanamycin selection on ½ MS medium with or without the supplement of 2% sucrose in dark for the first 7 d and then exposed to light. Without sucrose, some seedlings with only the two cotyledons or the first two true leaves died eventually, and only a few seedlings fully developed. The proportion of seedlings developed with the first two true leaves or fully developed was recorded.

Petunia hybrida = assay: Petunia transformation with PEP6-3; type: in vivo; settings: five independent transgenic shoots, versus controls
Method: PEPS-3 was introduced into Petunia hybrida by Agrobacterium tumefaciens-mediated transformation of leaf fragments, following a modified protocol by Jorgensen et al, (1996), incorporated herein by reference. Leaves were dissected into 4×5 mm fragments and immersed in Agrobacterium solution for 15 min, then transferred to MS agar plates supplemented with TDZ (1 μg/mL), galacturonic add (212 μg/mL) and acetosyringone (8 μg/mL). After 2 d in darkness, explants were transferred to MS medium containing TDZ (1 μg/mL), carbenicillin (500 μg/mL) and kanamycin (150 μg/mL) for two weeks. Callusing explants were then transferred to light on MS medium containing only antibiotics. After the appearance of shoots, these were transferred to MS medium containing antibiotics and IBA (0.8 μg/mL), for root formation.

[6] = ½ MS plate without sucrose, kanamycin selection, T2 seeds

With “MACDFNFGIC (chemically synthesized peptide sequence of BARP CBF6AA-15 associated with early flowering behavior)” the rosette size (Arabidopsis plants [1]) was 5 mm, the “number of rosette leaves at the time of flowering” value [2] was “fewer number of leaves at the time of flowering than the wild type” and the “bolting earlier than Col-0” value (Arabidopsis plants [3]; lines 1, 2 and 3, inferred from rosette leaf number) was 3 to 4 days. For the same sequence, the “number of rosette leaves when bolting” value (Arabidopsis plants [3]; lines 1, 2 and 3, 16 hour light/8 hour dark, Col-0 11.5) was 10 rosette leaves, the “phenotype in independent transformant lines” value [4] was “significant early-flowering phenotype” and the phenotype [5] was “tiny, slightly early flowering”.
“MACRGVDSAC (chemically synthesized peptide sequence of BARP PEP6-3) [BARP producing sucrose dependent phenotype]” was tested, and the rosette size (Arabidopsis plants [1]) was 5 mm, the “size of independent transgenic lines” value (Arabidopsis seedlings; 20 independent transgenic lines versus control lines) was “grew smaller than control lines” and the “development of germinated seeds on sucrose plates” value (Arabidopsis seedlings; ½ MS plate with 2% sucrose) was “grew into fully-developed plants”. The germination rate (Arabidopsis seedlings; ½ MS plate with or without sucrose (both types of media)) was 95%, the “transgenic seedlings forming true leaves” value (Arabidopsis seedlings; [6]) was under 30% and the “transgenic seedlings growing into fully-developed plants” value (Arabidopsis seedlings; [6]) was under 10%. For the same sequence, the “growth of transgenic petunia shoots” value (Petunia hybrida) was “grew slowly compared to controls before turning pale and dying after several weeks”.
